SMILES strings stand for the structures. Where two headings read alike, the source gives them in different places.

The source of these data is US20160166569A1, “METHOD FOR TREATING SKIN THICKENING” (GALDERMA RESEARCH & DEVELOPMENT, priority 2013, published 2016).

For this experiment, the system named is UV-induced skin thickening. The note with it: for other skin disorders induced by UV-irradiation (low grade of erythema or flaking, white raised area on skin, wrinkling): compared to vehicle control. The method, then: Albino hairless SKHI-hr mice (36/sex/group) were treated for 40 weeks with UVR and brimonidine gel or vehicle according to the design in Table 11. […] Topical treatments were performed approximately one hour before UVR on Monday, Wednesday and Friday of each week and approximately one hour after UVR Tuesday and Thursday of each week.
N/N=Total number of observations/number of mice with observation

`Brc1c(NC2=NCCN2)ccc2nccnc12` [brimonidine, (5-bromo-quinoxalin-6-yl)-(4,5-dihydro-1H-imidazol-2-yl)-amine]: for the setting “0.18% (w/w) topical”, the “UV-induced skin thickness, statistical effect” value is reported as “did not statistically reduce” and the “incidence of skin thickening compared to the UV control group” value was “observably lower”. For the setting “1% (w/w) topical”, the “UV-induced skin thickness, statistical effect compared to the UV control group” value was “statistically reduced” and the “other skin disorders induced by UV-irradiation (low grade of erythema or flaking, white raised area on skin, wrinkling)” value is on record as “reduced”. For the setting “2% (w/w) topical”, the “UV-induced skin thickness, statistical effect compared to the UV control group” value is recorded as “statistically reduced” and the “other skin disorders induced by UV-irradiation (low grade of erythema or flaking, white raised area on skin, wrinkling)” value is given as “reduced”. In addition, under “mice exposed to UV radiation, summary statement”, the “skin thickening or other skin disorders” value is recorded as “significant reduction”. Also, the UV-induced skin thickening entry (topical application at 0.18%, 1% and 2% (w/w), UVR 600 RBU/week) is recorded as “dose-dependent reduction”.
